Like-named read-outs stand apart in the source and are kept apart here. Bounds are passed on as bounds.

Series [1] relates to mouse hepatocytes.
Series [2] has as its system mouse hepatocytes. Nature of the series: cells. As to conditions: Hepatocyte, 1 h.
Another series has as its system mouse liver. Nature of the series: Adduct-trapping in mouse liver proteins (Western blot, immunohistochemistry). In kind it is in vivo. Particulars: 4 hours after 300 μmol/kg i.p.; hydralazine given with allyl alcohol, hydrazone given alone.
The subject of a further series is mice. Kind of series: Allyl alcohol hepatotoxicity in mice (plasma SDH, GPT, hepatic GSH).
In the next series the test system is PC-12 cells. Kind of series: Allylamine cytotoxicity in PC-12 cells (MTT). As to conditions: Rattus norvegicus, PC-12, 24 h, read-out: concentration producing 50% cell death.
Series [3] has as its system mouse hepatocytes. Nature of the series: Crotyl alcohol toxicity in isolated mouse hepatocytes (LDH leakage). As to conditions: 500 μM crotyl alcohol, by 3 hours.
Series [4] concerns mouse hepatocytes. The source holds these as a separate data set.
The conditions of series [5]: pH 7.
The next series has as its target T1, acrolein-modified BSA (Bos taurus, UniProt P02769).
T1 construct: a model protein (BSA, bovine serum albumin); from tissue; host or cells: bovine serum (from the protein's name only)
Kind of series: Cell-free immunoassay for adduct-breaking on acrolein-pretreated BSA. The series is classed as biochemical, bovine. As to conditions: BSA pretreated with 1 mM acrolein 20 min; 50, 250 and 500 μM test compound, 30 min at 37° C.

[6] abbreviates: read-out: PC50 (concentration producing a 50% decrease in LDH leakage).
Where [7] appears, read: read-out: PC50 (concentration affording 50% reduction in cell killing).

T1 sequence (P02769 25-607): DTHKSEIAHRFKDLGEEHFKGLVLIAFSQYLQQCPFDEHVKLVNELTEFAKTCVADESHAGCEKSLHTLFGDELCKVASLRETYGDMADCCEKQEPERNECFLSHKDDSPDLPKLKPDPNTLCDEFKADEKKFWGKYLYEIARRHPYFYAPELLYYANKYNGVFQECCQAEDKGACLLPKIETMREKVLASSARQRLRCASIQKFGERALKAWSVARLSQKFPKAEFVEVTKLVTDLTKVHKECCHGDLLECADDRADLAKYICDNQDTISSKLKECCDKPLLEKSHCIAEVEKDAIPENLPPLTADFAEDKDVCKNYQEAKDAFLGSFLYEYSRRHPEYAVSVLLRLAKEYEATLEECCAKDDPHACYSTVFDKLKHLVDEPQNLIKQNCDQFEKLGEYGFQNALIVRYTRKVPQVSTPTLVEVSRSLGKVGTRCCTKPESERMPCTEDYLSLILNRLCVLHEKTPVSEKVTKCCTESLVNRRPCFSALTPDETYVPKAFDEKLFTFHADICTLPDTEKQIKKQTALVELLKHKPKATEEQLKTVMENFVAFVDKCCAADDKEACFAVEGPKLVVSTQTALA

On to 1,1-dimethylhydrazine, for which, in the series with mouse hepatocytes [1] (setting [6]), the EC50 is > 100 µM.
As for `c1ccc(NNc2ccccc2)cc1` [1,2-diphenylhydrazine], the EC50 in the series on mouse hepatocytes [2] (setting [6]) stood at 19 ± 2.6 µM.
For the molecule `C=C/C=N/Nc1nncc2ccccc12` [(1E)-acrylaldehyde 1-[1-phthalazinyl]-hydrazone], the “immunohistochemical detection of hydralazine-stabilized acrolein adducts in liver sections” value with mouse liver is on record as “no immunorecognition was evident”.
With `c1ccc(Nc2ccc(Nc3ccccc3)cc2)cc1` [N,N′-Diphenyl-p- phenylenediamine, N,N′-Diphenyl-p-phenylenediamine], the EC50 in the series with mouse hepatocytes [2] (setting [6]) was determined as 4 ± 1.3 µM.
Turning to `CCCCNC` [N-methylbutylamine], in the series with mouse hepatocytes [2] (setting [6]), the EC50 is 6 ± 2.2 µM.
For `C=CCO` [allyl alcohol], the cell death induced in the series with mouse hepatocytes [1] (mouse) stood at 100%. Further, the fatalities result with mice (90 mg/kg) was “no fatalities”. Further, in the series with mice (90 mg/kg i.p., 4 hours), the “decrease in hepatic GSH stores” value was determined as 65%, the “elevation of plasma GPT activity over controls” value is given as 24 fold and the “elevation of plasma SDH activity over controls” value came to 30 fold. In the series on mice (100 mg/kg), the mortality is on record as 30%.
Regarding `C=CCN` [allylamine], the EC50 in the series with PC-12 cells is ~45 µM.
In the case of `Nc1ccccc1` [aniline], the EC50 with mouse hepatocytes [2] (setting [6]) was determined as 61 ± 20 µM.
Take `NCc1ccccc1` [benzylamine]: in the series with mouse hepatocytes [2] (setting [6]), the EC50 was > 100 µM.
For the molecule `c1ccc2c(c1)[nH]c1ccccc12` [carbazole], the EC50 in the series with mouse hepatocytes [2] (setting [6]) stood at 40 ± 12 µM.
The molecule `C/C=C/CO` [crotyl alcohol] returned a cell death induced in the series with mouse hepatocytes [3] of 100%.
For `NC1CCCCC1` [cyclohexylamine], the EC50 in the series with mouse hepatocytes [2] (setting [6]) was > 100 µM.
With `O=P1(N(CCCl)CCCl)NCCCO1` (stereo not drawn) [cyclophosphamide], the “concentration producing complete cell death” value in the series with mouse hepatocytes [4] (18-hr incubation) is ≥ 250 µM.
As to `C1CCC(NC2CCCCC2)CC1` [dicyclohexylamine], in the series with mouse hepatocytes [2] (setting [6]), the EC50 amounted to 59 ± 11 µM.
With `CC(C)NC(C)C` [diisopropylamine], the EC50 with mouse hepatocytes [2] (setting [6]) is 66 ± 15 µM.
Turning to `c1ccc(Nc2ccccc2)cc1` [diphenylamine], in the series on mouse hepatocytes [2] (setting [6]), the EC50 was 3 ± 1.2 µM.
For `NNc1nccc2ccccc12` [hydrazinoisoquinoline, 1-hydrazinoisoquinoline], the EC50 with mouse hepatocytes [2] (setting [6]) amounted to 6 ± 0.14 µM.
Turning to `NNc1ccccn1` [hydrazinopyridine, 2-hydrazinopyridine], the EC50 in the series with mouse hepatocytes [2] (setting [6]) is 40 ± 6.1 µM.
Consider `NNc1ncnc2ccccc12` [hydrazinoquinazoline, 4-hydrazinoquinazoline], for which the EC50 in the series with mouse hepatocytes [2] (setting [6]) amounted to 10 ± 0.05 µM.
On the same count and under the same terms, to `NNc1ccc2ccccc2n1` [hydrazinoquinoline, 2-hydrazinoquinoline] belongs 11 ± 0.44 µM.
Take `NCCCC[C@H](N)C(=O)O` [lysine]: the “acrolein removed from solution” value in series [5] was “approximately 13%”.
`CON` [methoxyamine]: the “acrolein removed from solution” value in series [5] is reported as “around 40%”. The EC50 with mouse hepatocytes [2] (setting [7]) and in the series with mouse hepatocytes [2] (setting [6]) was 9000 ± 1800 µM throughout. Besides, at acrolein-modified BSA, the “adduct-breaking activity (acrolein-lysine adducts in BSA)” value (“adduct-breaking activity” for short) is recorded as “effects were most evident at the top concentration studied”.
Regarding `NNc1cccc2ccccc12` [naphthylhydrazine], the EC50 in the series on mouse hepatocytes [2] (setting [6]) was 7 ± 0.19 µM.
In the case of `Nc1ccccc1O` [o-aminophenol], the EC50 in the series with mouse hepatocytes [2] (setting [6]) stood at 18 ± 3.2 µM.
The same measure, in the same setting: the result for `Nc1ccc(O)cc1` [p-aminophenol] reads 20 ± 8.5 µM.
As for `Oc1ccccc1` [phenol], in the series on mouse hepatocytes [2] (setting [6]), the EC50 was found to be 48 ± 12 µM.
For the molecule `NNc1ccccc1` [phenylhydrazine], in the series on mouse hepatocytes [2] (setting [6]), the EC50 was determined as 8 ± 0.28 µM.
Turning to `CCCC(C(=O)OCCN(CC)CC)(c1ccccc1)c1ccccc1` [proadifen], the “effect on cyclophosphamide-induced LDH leakage” value with mouse hepatocytes [4] is recorded as “abolished the cyclophosphamide-induced increase in LDH leakage”.
In the case of `Cc1ncc(CO)c(CN)c1O` [pyridoxamine], the EC50 with mouse hepatocytes [2] (setting [7]) and in the series with mouse hepatocytes [2] (setting [6]) was > 10000 µM in each case. On acrolein-modified BSA, the “adduct-breaking activity” value is on record as “lacked adduct-breaking potency”.
For `O=C(O)c1ccccc1O` [salicylic acid], the EC50 in the series on mouse hepatocytes [2] (setting [6]) is 59 ± 11 µM.
For `Sc1ccccc1` [thiophenol], the EC50 in the series on mouse hepatocytes [2] (setting [6]) was > 100 µM.
Take aminoguanidine: the “acrolein removed from solution” value in [5] is “approximately 4%”. Further, the EC50 with mouse hepatocytes [1] (setting [7]) and with mouse hepatocytes [1] (setting [6]) was > 10000 µM each time. In addition, the “adduct-breaking activity” value on acrolein-modified BSA was “lacked adduct-breaking potency”.
